Reference: PubChem BioAssay AID248 (DTP/NCI, 2004)
Several values for one entry are separate records, joined by “and”; a condition that tells them apart may be missing. Equal values may be shown once. Toxic doses and inconclusive results are not listed.

System: L1210 leukemia ip in BDF1 mice, survival T/C
Assay: NCI In Vivo Anticancer Drug Screen. Data for tumor model L1210 Leukemia (intraperitoneal) in B6D2F1 (BDF1) mice
Details: endpoint: mean survival time, higher = longer survival
How it was run: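 Tumor cells were implanted, animals were treated, and survival was followed. The result divides the treated measurement by the vehicle-control measurement.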

[1] = dose: 100.0 mg/kg/injection, schedule: Q01DX009 (ip), vehicle: saline with Tween-80
[2] = dose: 200.0 mg/kg/injection, schedule: Q01DX009 (ip), vehicle: saline with Tween-80
[3] = dose: 400.0 mg/kg/injection, schedule: Q01DX009 (ip), vehicle: saline with Tween-80
[4] = dose: 50.0 mg/kg/injection, schedule: Q04DX003 (ip), vehicle: saline
[5] = dose: 100.0 mg/kg/injection, schedule: Q04DX003 (ip), vehicle: saline
[6] = dose: 100.0 mg/kg/injection, schedule: Q01DX001 (ip), vehicle: Klucel (hydroxypropylcellulose) (HPC)
[7] = dose: 200.0 mg/kg/injection, schedule: Q01DX001 (ip), vehicle: Klucel (hydroxypropylcellulose) (HPC)
[8] = dose: 400.0 mg/kg/injection, schedule: Q01DX001 (ip), vehicle: Klucel (hydroxypropylcellulose) (HPC)
[9] = dose: 100.0 mg/kg/injection, schedule: Q04DX002 (ip), vehicle: Klucel (hydroxypropylcellulose) (HPC)
[10] = dose: 200.0 mg/kg/injection, schedule: Q04DX002 (ip), vehicle: Klucel (hydroxypropylcellulose) (HPC)
[11] = dose: 100.0 mg/kg/injection, schedule: Q01DX001 (ip), vehicle: carboxymethylcellulose (CMC)
[12] = dose: 200.0 mg/kg/injection, schedule: Q01DX001 (ip), vehicle: carboxymethylcellulose (CMC)
[13] = dose: 400.0 mg/kg/injection, schedule: Q01DX001 (ip), vehicle: carboxymethylcellulose (CMC)
[14] = dose: 75.0 mg/kg/injection, schedule: Q01DX001 (ip), vehicle: saline
[15] = dose: 100.0 mg/kg/injection, schedule: Q04DX003 (ip), vehicle: saline with Tween-80
[16] = dose: 200.0 mg/kg/injection, schedule: Q04DX003 (ip), vehicle: saline with Tween-80
[17] = dose: 400.0 mg/kg/injection, schedule: Q04DX003 (ip), vehicle: saline with Tween-80
[18] = dose: 100.0 mg/kg/injection, schedule: Q01DX001 (ip), vehicle: saline
[19] = dose: 200.0 mg/kg/injection, schedule: Q01DX001 (ip), vehicle: saline
[20] = dose: 400.0 mg/kg/injection, schedule: Q01DX001 (ip), vehicle: saline

CCOc1ccccc1NC(=O)Oc1ccc(-c2ccccc2)cc1
T/C [1]: 98 % of control | T/C [2]: 100 % of control | T/C [3]: 93 % of control

CCCCCC(CN(C)C)C(=O)/C=C/c1ccccc1 (configuration not stated)
T/C (dose: 50.0 mg/kg/injection, schedule: Q01DX009 (sc), vehicle: other): 95 % of control | T/C (dose: 100.0 mg/kg/injection, schedule: Q01DX001 (sc), vehicle: steriod suspending solution): 93 % of control | T/C (dose: 100.0 mg/kg/injection, schedule: Q01DX009 (sc), vehicle: other): 102 % of control | T/C (dose: 100.0 mg/kg/injection, schedule: Q04DX003 (sc), vehicle: other): 101 % of control | T/C (dose: 200.0 mg/kg/injection, schedule: Q01DX001 (sc), vehicle: steriod suspending solution): 93 % of control | T/C (dose: 200.0 mg/kg/injection, schedule: Q04DX003 (sc), vehicle: other): 90 % of control | T/C (dose: 400.0 mg/kg/injection, schedule: Q01DX001 (sc), vehicle: steriod suspending solution): 100 % of control

O=Nc1ccc(NO)c2ccccc12
T/C (dose: 12.5 mg/kg/injection, schedule: Q04DX003 (ip), vehicle: saline): 108 % of control | T/C (dose: 25.0 mg/kg/injection, schedule: Q04DX003 (ip), vehicle: saline + alcohol): 100 % of control | T/C (dose: 25.0 mg/kg/injection, schedule: Q04DX003 (ip), vehicle: saline): 102 % of control | T/C (dose: 50.0 mg/kg/injection, schedule: Q04DX003 (ip), vehicle: saline + alcohol): 100 % of control | T/C [4]: 100 % of control | T/C (dose: 100.0 mg/kg/injection, schedule: Q04DX003 (ip), vehicle: saline + alcohol): 96 % of control | T/C [5]: 99 % of control

CCCCCCCCCCCCCSCCCCCCCCCCCCSCCCCCCCCCCCC
T/C [6]: 89 % of control | T/C [7]: 88 % of control | T/C [8]: 89 % of control

CCCCCCCCOc1ccc(C(c2ccccc2)(c2ccccc2)c2ccccc2)cc1
T/C [6]: 90 % of control | T/C [7]: 89 % of control | T/C [8]: 89 % of control

O=[N+]([O-])c1cc(Cl)c(O)c([N+](=O)[O-])c1O
T/C (dose: 75.0 mg/kg/injection, schedule: Q01DX001 (ip), vehicle: carboxymethylcellulose (CMC)): 103 % of control

COC(=O)C1C(C)CCCC1(C)c1ccccc1 (configuration not stated)
T/C (dose: 100.0 mg/kg/injection, schedule: Q04DX002 (ip), vehicle: gum acacia): 103 % of control | T/C (dose: 200.0 mg/kg/injection, schedule: Q04DX002 (ip), vehicle: gum acacia): 106 % of control | T/C (dose: 400.0 mg/kg/injection, schedule: Q04DX002 (ip), vehicle: gum acacia): 95 % of control

Clc1nc(N2CC2)nc(N2CC2)n1
T/C (dose: 2.5 mg/kg/injection, schedule: Q01DX001 (ip), vehicle: carboxymethylcellulose (CMC)): 112 % of control | T/C (dose: 5.0 mg/kg/injection, schedule: Q01DX001 (ip), vehicle: carboxymethylcellulose (CMC)): 112 % of control | T/C (dose: 10.0 mg/kg/injection, schedule: Q01DX001 (ip), vehicle: carboxymethylcellulose (CMC)): 117 % of control | T/C (dose: 15.0 mg/kg/injection, schedule: Q01DX001 (ip), vehicle: carboxymethylcellulose (CMC)): 114 % of control

O=C(OCc1ccccc1CN1CCOCC1)c1cccc(Cl)c1
T/C [9]: 92 % of control | T/C [10]: 92 % of control | T/C (dose: 400.0 mg/kg/injection, schedule: Q04DX002 (ip), vehicle: Klucel (hydroxypropylcellulose) (HPC)): 95 % of control

Cc1cc(Cl)ccc1OCC(=O)Oc1c(Cl)c(Cl)c(Cl)c(Cl)c1Cl
T/C [9]: 93 % of control | T/C [10]: 112 % of control

CC1=C(/C=C\C(C)=N\NC(=O)c2ccc[n+](C)c2)C(C)(C)CCC1
T/C (dose: 12.5 mg/kg/injection, schedule: Q01DX009 (ip), vehicle: saline): 98 % of control | T/C (dose: 25.0 mg/kg/injection, schedule: Q01DX009 (ip), vehicle: saline): 88 % of control | T/C (dose: 50.0 mg/kg/injection, schedule: Q01DX009 (ip), vehicle: saline): 104 % of control and 88 % of control

CCCCNC(=O)Nc1cccc2ccccc12
T/C (dose: 100.0 mg/kg/injection, schedule: Q01DX009 (ip), vehicle: Klucel (hydroxypropylcellulose) (HPC)): 96 % of control | T/C (dose: 200.0 mg/kg/injection, schedule: Q01DX009 (ip), vehicle: Klucel (hydroxypropylcellulose) (HPC)): 96 % of control | T/C (dose: 400.0 mg/kg/injection, schedule: Q01DX009 (ip), vehicle: Klucel (hydroxypropylcellulose) (HPC)): 97 % of control

Cc1cc(N(CCCl)CCCl)ccc1C=Nc1ccc(-c2csc(Cc3ccccc3)n2)cc1
T/C (dose: 50.0 mg/kg/injection, schedule: Q01DX001 (ip), vehicle: carboxymethylcellulose (CMC)): 105 % of control | T/C [11]: 103 % of control | T/C [12]: 116 % of control | T/C [13]: 97 % of control

Cc1[nH]nc2c(=S)[nH]c(=O)[nH]c12
T/C [14]: 92 % of control | T/C (dose: 150.0 mg/kg/injection, schedule: Q01DX001 (ip), vehicle: saline): 96 % of control

COc1cc2c(c3c1CCC(C)(C)O3)Cc1c(cc(OC)c(OC)c1CCC(C)(C)O)O2
T/C [6]: 103 % of control | T/C [7]: 96 % of control | T/C [8]: 92 % of control

C(=N\N=C\c1cccs1)/c1cccs1
T/C [15]: 98 % of control | T/C [16]: 98 % of control | T/C [17]: 95 % of control

Cc1ccc(S(=O)(=O)N2CN(S(=O)(=O)c3ccc(C)cc3)CN(S(=O)(=O)c3ccc(C)cc3)C2)cc1
T/C (dose: 100.0 mg/kg/injection, schedule: Q04DX002 (ip), vehicle: saline with Tween-80): 94 % of control | T/C (dose: 200.0 mg/kg/injection, schedule: Q04DX002 (ip), vehicle: saline with Tween-80): 91 % of control | T/C (dose: 400.0 mg/kg/injection, schedule: Q04DX002 (ip), vehicle: saline with Tween-80): 91 % of control

CCOC(=O)/C(C#N)=C\c1cc(OC)ccc1OC
T/C [1]: 101 % of control | T/C [15]: 96 % of control | T/C [16]: 94 % of control | T/C [17]: 93 % of control

O=C(O)c1cc(=O)n2c3c(cccc13)CCC2
T/C (dose: 50.0 mg/kg/injection, schedule: Q04DX003 (ip), vehicle: saline with Tween-80): 101 % of control | T/C [15]: 104 % of control | T/C [16]: 90 % of control

CCNC(=O)N(O)C1(C#N)CCCCC1
T/C (dose: 100.0 mg/kg/injection, schedule: Q01DX001 (ip), vehicle: other): 98 % of control | T/C (dose: 200.0 mg/kg/injection, schedule: Q01DX001 (ip), vehicle: other): 96 % of control | T/C (dose: 400.0 mg/kg/injection, schedule: Q01DX001 (ip), vehicle: other): 98 % of control

CCCCC1C2CCCCC2CC2CCCCC21 (configuration not stated)
T/C (dose: 100.0 mg/kg/injection, schedule: Q01DX001 (ip), vehicle: saline with Tween-80): 98 % of control | T/C (dose: 200.0 mg/kg/injection, schedule: Q01DX001 (ip), vehicle: saline with Tween-80): 101 % of control | T/C (dose: 400.0 mg/kg/injection, schedule: Q01DX001 (ip), vehicle: saline with Tween-80): 98 % of control

COc1cc(F)cc([N+](=O)[O-])c1
T/C [11]: 95 % of control | T/C [12]: 97 % of control | T/C [13]: 97 % of control

CCCCCCC1CC(=O)CC(=O)C1
T/C [18]: 101 % of control | T/C [19]: 98 % of control | T/C [20]: 95 % of control

CCN=C(c1ccc(NC(=O)c2ccc(C(=O)Nc3ccc(C(=NCC)N(CC)C(=O)OC)cc3)cc2)cc1)N(CC)C(=O)OC
T/C (dose: 1.5 mg/kg/injection, schedule: Q01DX015 (ip), vehicle: methylcellulose (MC)): 112 % of control | T/C (dose: 7.5 mg/kg/injection, schedule: Q01DX015 (ip), vehicle: methylcellulose (MC)): 167 % of control

c1cc[nH]c1
T/C [14]: 100 % of control

COC(=O)CC1OCC=C2CN3CCC45C6=CC(=O)C(=O)C([N+](=O)[O-])=C6NC4C1C2CC35 (configuration not stated)
T/C (dose: 5.0 mg/kg/injection, schedule: Q01DX001 (ip), vehicle: saline): 97 % of control | T/C (dose: 10.0 mg/kg/injection, schedule: Q01DX001 (ip), vehicle: saline): 97 % of control

CC(=O)Nc1ccc(/C=N/N2CCN(/N=C/c3ccc(NC(C)=O)cc3)CC2)cc1
T/C [18]: 86 % of control | T/C [19]: 96 % of control | T/C [20]: 92 % of control

CCOC(=N)CCl
T/C [4]: 101 % of control | T/C [5]: 95 % of control

CCNC(=O)NC(CSCSC)C(=O)OC (configuration not stated)
T/C [1]: 98 % of control | T/C [15]: 104 % of control | T/C [2]: 105 % of control | T/C [16]: 105 % of control | T/C [3]: 96 % of control | T/C [17]: 102 % of control
